Legend:
Experiment in all cases: Kinase panel profiling
Assay type in all cases: biochemical
Conditions in all cases: 10 μM ATP
[1] = target: T1, NEK4 (Homo sapiens, UniProt P51957)
T1 construct: purchased Reaction Biology Corp
Description: (§1) Kinase panel profiling was conducted by Reaction Biology Corp. (San Diego, CA, USA). A single dose (1.0 μM) of 6r was tested against 371 recombinant human kinases in the presence of 10 μM ATP.

[2] = target: T2, PKAcb (Homo sapiens, UniProt P22694)
T2 construct: purchased Reaction Biology Corp
Description: as §1

[3] = target: T3, p70S6Kb/RPS6KB2 (Homo sapiens, UniProt Q9UBS0)
T3 construct: purchased Reaction Biology Corp
Description: as §1

[4] = target: T4, AKT1 (Homo sapiens, UniProt P31749)
T4 construct: purchased Reaction Biology Corp
T4 sequence (P31749 whole entry): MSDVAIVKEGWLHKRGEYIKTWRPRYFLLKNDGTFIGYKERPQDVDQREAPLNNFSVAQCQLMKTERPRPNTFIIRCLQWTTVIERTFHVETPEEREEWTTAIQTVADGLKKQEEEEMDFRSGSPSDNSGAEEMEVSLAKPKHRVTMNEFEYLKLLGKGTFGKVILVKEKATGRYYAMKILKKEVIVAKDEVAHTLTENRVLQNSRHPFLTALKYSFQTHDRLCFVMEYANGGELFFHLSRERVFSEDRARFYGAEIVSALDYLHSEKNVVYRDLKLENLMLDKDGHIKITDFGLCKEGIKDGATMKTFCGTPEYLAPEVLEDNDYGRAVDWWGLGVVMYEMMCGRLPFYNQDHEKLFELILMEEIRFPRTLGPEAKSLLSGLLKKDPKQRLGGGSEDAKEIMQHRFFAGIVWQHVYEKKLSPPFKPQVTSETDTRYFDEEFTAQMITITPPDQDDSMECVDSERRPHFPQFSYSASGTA
Description: as §1

[5] = target: T5, CDK16/cyclin Y (PCTAIRE) (Homo sapiens, UniProt Q00536)
T5 construct: purchased Reaction Biology Corp
Description: as §1

[6] = target: T6, GRK4 (Homo sapiens, UniProt P32298)
T6 construct: purchased Reaction Biology Corp
Description: as §1

[7] = target: T7, DMPK2 (Homo sapiens, UniProt Q6DT37)
T7 construct: purchased Reaction Biology Corp
Description: as §1

[8] = target: T8, LATS2 (Homo sapiens, UniProt Q9NRM7)
T8 construct: purchased Reaction Biology Corp
Description: as §1

[9] = target: T9, IKKa/CHUK (Homo sapiens, UniProt O15111)
T9 construct: purchased Reaction Biology Corp
T9 sequence (O15111 whole entry): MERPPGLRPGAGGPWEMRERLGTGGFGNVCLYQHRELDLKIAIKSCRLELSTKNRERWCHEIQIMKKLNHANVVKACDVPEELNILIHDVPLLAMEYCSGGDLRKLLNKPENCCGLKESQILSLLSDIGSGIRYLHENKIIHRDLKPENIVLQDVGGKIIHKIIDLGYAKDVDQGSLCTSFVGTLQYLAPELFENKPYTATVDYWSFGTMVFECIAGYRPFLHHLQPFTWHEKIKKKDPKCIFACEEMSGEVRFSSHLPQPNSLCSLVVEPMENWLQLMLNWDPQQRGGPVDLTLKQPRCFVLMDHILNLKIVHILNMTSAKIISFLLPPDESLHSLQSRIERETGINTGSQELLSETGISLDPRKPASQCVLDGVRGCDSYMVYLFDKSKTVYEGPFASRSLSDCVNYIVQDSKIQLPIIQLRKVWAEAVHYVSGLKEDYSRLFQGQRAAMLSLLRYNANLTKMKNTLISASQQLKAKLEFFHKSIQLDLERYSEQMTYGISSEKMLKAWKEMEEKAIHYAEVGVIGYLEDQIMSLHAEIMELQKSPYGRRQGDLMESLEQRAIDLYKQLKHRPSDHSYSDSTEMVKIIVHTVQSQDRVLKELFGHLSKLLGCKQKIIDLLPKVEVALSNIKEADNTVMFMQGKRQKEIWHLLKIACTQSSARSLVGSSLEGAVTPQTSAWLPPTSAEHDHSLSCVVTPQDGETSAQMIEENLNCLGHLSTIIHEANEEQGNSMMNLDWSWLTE
Description: as §1

[10] = target: T10, PIM1 (Homo sapiens, UniProt P11309)
T10 construct: purchased Reaction Biology Corp
Description: as §1

[11] = target: T11, DCAMKL2 (Homo sapiens, UniProt Q8N568)
T11 construct: purchased Reaction Biology Corp
T11 sequence (Q8N568 whole entry): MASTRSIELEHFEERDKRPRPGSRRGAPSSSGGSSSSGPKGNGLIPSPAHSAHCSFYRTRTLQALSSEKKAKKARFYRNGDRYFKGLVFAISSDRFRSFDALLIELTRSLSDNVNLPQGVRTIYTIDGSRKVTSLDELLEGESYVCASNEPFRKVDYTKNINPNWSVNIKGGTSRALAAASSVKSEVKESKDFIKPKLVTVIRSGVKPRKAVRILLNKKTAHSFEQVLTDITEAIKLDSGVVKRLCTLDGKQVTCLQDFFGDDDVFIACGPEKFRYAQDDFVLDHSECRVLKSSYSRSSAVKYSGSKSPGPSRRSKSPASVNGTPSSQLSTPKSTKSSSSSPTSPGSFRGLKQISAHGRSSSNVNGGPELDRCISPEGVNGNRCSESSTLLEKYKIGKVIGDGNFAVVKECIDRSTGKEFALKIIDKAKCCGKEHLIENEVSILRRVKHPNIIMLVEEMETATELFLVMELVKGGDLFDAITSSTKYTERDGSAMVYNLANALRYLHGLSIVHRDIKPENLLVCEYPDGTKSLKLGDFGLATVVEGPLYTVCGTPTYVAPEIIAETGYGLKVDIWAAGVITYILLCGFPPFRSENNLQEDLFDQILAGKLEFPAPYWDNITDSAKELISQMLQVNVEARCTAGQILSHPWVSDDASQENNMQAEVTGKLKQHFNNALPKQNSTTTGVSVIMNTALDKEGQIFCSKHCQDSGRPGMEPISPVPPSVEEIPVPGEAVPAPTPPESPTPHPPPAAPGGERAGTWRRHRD
Description: as §1

[12] = target: T12, TRKB (Homo sapiens, UniProt Q16620)
T12 construct: purchased Reaction Biology Corp
Description: as §1

[13] = target: T13, CSK (Homo sapiens, UniProt P41240)
T13 construct: purchased Reaction Biology Corp
Description: as §1

[14] = target: T14, PAK5 (Homo sapiens, UniProt Q9P286)
T14 construct: purchased Reaction Biology Corp
Description: as §1

[15] = target: T15, KHS/MAP4K5 (Homo sapiens, UniProt Q9Y4K4)
T15 construct: purchased Reaction Biology Corp
Description: as §1

[16] = target: T16, TLK1 (Homo sapiens, UniProt Q9UKI8)
T16 construct: purchased Reaction Biology Corp
Description: as §1

[17] = target: T17, PAK6 (Homo sapiens, UniProt Q9NQU5)
T17 construct: purchased Reaction Biology Corp
Description: as §1

[18] = target: T18, MEK3 (Homo sapiens, UniProt P46734)
T18 construct: purchased Reaction Biology Corp
T18 sequence (P46734 whole entry): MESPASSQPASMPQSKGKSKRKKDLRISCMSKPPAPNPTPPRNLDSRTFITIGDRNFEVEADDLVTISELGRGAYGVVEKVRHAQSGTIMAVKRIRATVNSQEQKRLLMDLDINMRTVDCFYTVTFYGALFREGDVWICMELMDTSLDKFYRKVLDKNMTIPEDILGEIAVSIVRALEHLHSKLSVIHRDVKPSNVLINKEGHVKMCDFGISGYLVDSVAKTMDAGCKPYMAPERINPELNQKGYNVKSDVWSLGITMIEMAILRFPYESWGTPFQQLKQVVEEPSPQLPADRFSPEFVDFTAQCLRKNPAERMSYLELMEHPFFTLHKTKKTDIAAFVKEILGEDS
Description: as §1

[19] = target: T19, SLK/STK2 (Homo sapiens, UniProt Q9H2G2)
T19 construct: purchased Reaction Biology Corp
Description: as §1

[20] = target: T20, YSK4/MAP3K19 (Homo sapiens, UniProt Q56UN5)
T20 construct: purchased Reaction Biology Corp
Description: as §1

[21] = target: T21, EGFR (Homo sapiens, UniProt P00533)
T21 construct: purchased Reaction Biology Corp
Description: as §1

[22] = target: T22, MYLK4 (Homo sapiens, UniProt Q86YV6)
T22 construct: purchased Reaction Biology Corp
Description: as §1

[23] = target: T23, MRCKa/CDC42BPA (Homo sapiens, UniProt Q5VT25)
T23 construct: purchased Reaction Biology Corp
T23 sequence (Q5VT25 whole entry): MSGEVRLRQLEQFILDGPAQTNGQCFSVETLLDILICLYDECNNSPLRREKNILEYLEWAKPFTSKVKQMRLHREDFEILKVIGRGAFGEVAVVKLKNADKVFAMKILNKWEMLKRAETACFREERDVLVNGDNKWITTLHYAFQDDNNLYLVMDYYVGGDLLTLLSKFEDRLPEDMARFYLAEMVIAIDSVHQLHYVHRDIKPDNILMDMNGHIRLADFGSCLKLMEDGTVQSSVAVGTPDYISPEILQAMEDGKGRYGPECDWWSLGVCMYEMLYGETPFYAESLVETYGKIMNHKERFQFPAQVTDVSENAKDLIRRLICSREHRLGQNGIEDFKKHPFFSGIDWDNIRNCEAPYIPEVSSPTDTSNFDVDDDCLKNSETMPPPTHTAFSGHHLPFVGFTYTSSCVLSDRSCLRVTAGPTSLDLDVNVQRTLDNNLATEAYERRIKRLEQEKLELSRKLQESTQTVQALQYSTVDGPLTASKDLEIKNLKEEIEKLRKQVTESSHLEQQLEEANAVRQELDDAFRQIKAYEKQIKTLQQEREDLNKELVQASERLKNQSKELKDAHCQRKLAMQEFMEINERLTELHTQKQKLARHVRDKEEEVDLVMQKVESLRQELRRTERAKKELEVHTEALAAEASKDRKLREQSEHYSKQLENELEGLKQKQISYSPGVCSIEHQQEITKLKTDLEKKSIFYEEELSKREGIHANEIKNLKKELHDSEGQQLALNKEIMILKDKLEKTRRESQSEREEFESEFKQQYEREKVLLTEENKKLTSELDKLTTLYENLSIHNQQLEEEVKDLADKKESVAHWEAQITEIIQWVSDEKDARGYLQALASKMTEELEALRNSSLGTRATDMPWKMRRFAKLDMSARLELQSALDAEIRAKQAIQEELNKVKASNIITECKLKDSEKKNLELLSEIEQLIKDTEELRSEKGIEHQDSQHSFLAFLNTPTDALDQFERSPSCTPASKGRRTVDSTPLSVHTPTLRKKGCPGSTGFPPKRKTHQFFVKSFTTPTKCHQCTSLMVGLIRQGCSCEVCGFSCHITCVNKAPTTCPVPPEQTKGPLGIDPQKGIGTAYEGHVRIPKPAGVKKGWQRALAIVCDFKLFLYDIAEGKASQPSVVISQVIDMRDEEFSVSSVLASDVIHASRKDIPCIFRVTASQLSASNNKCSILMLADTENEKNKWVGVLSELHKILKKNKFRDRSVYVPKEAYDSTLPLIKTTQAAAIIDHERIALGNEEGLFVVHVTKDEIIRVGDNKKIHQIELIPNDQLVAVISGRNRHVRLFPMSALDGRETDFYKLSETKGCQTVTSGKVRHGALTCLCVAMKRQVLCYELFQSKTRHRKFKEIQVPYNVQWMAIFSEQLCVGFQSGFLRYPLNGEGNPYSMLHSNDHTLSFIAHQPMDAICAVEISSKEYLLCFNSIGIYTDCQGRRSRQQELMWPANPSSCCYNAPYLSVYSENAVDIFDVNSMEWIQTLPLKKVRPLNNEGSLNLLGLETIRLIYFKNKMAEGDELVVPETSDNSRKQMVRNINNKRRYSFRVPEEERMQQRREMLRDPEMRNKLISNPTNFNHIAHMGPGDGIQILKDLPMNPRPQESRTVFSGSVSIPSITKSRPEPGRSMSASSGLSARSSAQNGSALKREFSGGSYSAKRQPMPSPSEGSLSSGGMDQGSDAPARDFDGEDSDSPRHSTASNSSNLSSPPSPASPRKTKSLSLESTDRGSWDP
Description: as §1

[24] = target: T24, NIM1 (Homo sapiens, UniProt Q8IY84)
T24 construct: purchased Reaction Biology Corp
Description: as §1

[25] = target: T25, TRKC (Homo sapiens, UniProt Q16288)
T25 construct: purchased Reaction Biology Corp
T25 sequence (Q16288 32-839): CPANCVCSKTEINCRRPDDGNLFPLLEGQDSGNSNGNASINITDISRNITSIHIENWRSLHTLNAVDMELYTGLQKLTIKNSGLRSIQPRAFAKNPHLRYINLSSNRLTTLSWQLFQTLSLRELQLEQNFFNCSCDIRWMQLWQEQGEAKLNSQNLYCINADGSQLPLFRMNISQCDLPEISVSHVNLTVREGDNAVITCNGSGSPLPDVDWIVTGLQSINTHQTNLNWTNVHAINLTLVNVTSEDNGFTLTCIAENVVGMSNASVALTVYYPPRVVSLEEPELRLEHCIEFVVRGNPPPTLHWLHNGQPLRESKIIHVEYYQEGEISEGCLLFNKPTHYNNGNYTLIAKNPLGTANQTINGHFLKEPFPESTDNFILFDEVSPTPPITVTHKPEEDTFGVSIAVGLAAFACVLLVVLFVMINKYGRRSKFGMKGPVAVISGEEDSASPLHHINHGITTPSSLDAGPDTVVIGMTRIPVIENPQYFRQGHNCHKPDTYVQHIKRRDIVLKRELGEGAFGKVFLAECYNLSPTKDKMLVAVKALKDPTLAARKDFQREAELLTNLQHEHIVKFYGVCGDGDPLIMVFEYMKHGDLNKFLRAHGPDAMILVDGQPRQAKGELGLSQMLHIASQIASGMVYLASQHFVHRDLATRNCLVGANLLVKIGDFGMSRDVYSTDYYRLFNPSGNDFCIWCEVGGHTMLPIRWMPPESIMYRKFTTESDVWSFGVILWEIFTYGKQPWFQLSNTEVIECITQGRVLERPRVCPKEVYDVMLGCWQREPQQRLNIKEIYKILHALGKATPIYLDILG
Description: as §1

[26] = target: T26, SSTK/TSSK6 (Homo sapiens, UniProt Q9BXA6)
T26 construct: purchased Reaction Biology Corp
Description: as §1

[27] = target: T27, TYK2 (Homo sapiens, UniProt P29597)
T27 construct: purchased Reaction Biology Corp
Description: as §1

[28] = target: T28, LYN (Homo sapiens, UniProt P07948)
T28 construct: purchased Reaction Biology Corp
Description: as §1

[29] = target: T29, ABL2/ARG (Homo sapiens, UniProt P42684)
T29 construct: purchased Reaction Biology Corp
Description: as §1

[30] = target: T30, STK38L/NDR2 (Homo sapiens, UniProt Q9Y2H1)
T30 construct: purchased Reaction Biology Corp
Description: as §1

[31] = target: T31, RIPK4 (Homo sapiens, UniProt P57078)
T31 construct: purchased Reaction Biology Corp
Description: as §1

[32] = target: T32, MYO3A (Homo sapiens, UniProt Q8NEV4)
T32 construct: purchased Reaction Biology Corp
Description: as §1

[33] = target: T33, TESK1 (Homo sapiens, UniProt Q15569)
T33 construct: purchased Reaction Biology Corp
Description: as §1

[34] = target: T34, MAPKAPK3 (Homo sapiens, UniProt Q16644)
T34 construct: purchased Reaction Biology Corp
Description: as §1

[35] = target: T35, EPHA2 (Homo sapiens, UniProt P29317)
T35 construct: purchased Reaction Biology Corp
Description: as §1

[36] = target: T36, SIK2 (Homo sapiens, UniProt Q9H0K1)
T36 construct: purchased Reaction Biology Corp
Description: as §1

[37] = target: T37, TNIK (Homo sapiens, UniProt Q9UKE5)
T37 construct: purchased Reaction Biology Corp
Description: as §1

[38] = target: T38, MSSK1/STK23 (Homo sapiens, UniProt Q9UPE1)
T38 construct: purchased Reaction Biology Corp
Description: as §1

[39] = target: T39, IRAK4 (Homo sapiens, UniProt Q9NWZ3)
T39 construct: purchased Reaction Biology Corp
Description: as §1

[40] = target: T40, P38g (Homo sapiens, UniProt P53778)
T40 construct: purchased Reaction Biology Corp
Description: as §1

[41] = target: T41, TAOK2/TAO1 (Homo sapiens, UniProt Q9UL54)
T41 construct: purchased Reaction Biology Corp
Description: as §1

[42] = target: T42, STK32B/YANK2 (Homo sapiens, UniProt Q9NY57)
T42 construct: purchased Reaction Biology Corp
Description: as §1

## Cc1ccc(NC(=O)c2ccc(CN3CCN(C)CC3)c(C(F)(F)F)c2)cc1-c1cnc2sc(N)nc2c1 [6r]
[1]
  inhibition at 1 µM: 25.6%
[2]
  inhibition at 1 µM: 0%
[3]
  inhibition at 1 µM: 34%
[4]
  inhibition at 1 µM: 0%
[5]
  inhibition at 1 µM: 0.8%
[6]
  inhibition at 1 µM: 0%
[7]
  inhibition at 1 µM: 8%
[8]
  inhibition at 1 µM: 2.1%
[9]
  inhibition at 1 µM: 4.8%
[10]
  inhibition at 1 µM: 13.6%
[11]
  inhibition at 1 µM: 0%
[12]
  inhibition at 1 µM: 10.6%
[13]
  inhibition at 1 µM: 41.3%
[14]
  inhibition at 1 µM: 5%
[15]
  inhibition at 1 µM: 0%
[16]
  inhibition at 1 µM: 0%
[17]
  inhibition at 1 µM: 7.6%
[18]
  inhibition at 1 µM: 5.2%
[19]
  inhibition at 1 µM: 37.8%
[20]
  inhibition at 1 µM: 0%
[21]
  inhibition at 1 µM: 21.4%
[22]
  inhibition at 1 µM: 4.6%
[23]
  inhibition at 1 µM: 0%
[24]
  inhibition at 1 µM: 1.3%
[25]
  inhibition at 1 µM: 13.6%
[26]
  inhibition at 1 µM: 0%
[27]
  inhibition at 1 µM: 7.8%
[28]
  inhibition at 1 µM: 97.5%
[29]
  inhibition at 1 µM: 87.2%
[30]
  inhibition at 1 µM: 6.5%
[31]
  inhibition at 1 µM: 4.8%
[32]
  inhibition at 1 µM: 15%
[33]
  inhibition at 1 µM: 5.3%
[34]
  inhibition at 1 µM: 10.7%
[35]
  inhibition at 1 µM: 77.4%
[36]
  inhibition at 1 µM: 5.6%
[37]
  inhibition at 1 µM: 22.4%
[38]
  inhibition at 1 µM: 30.6%
[39]
  inhibition at 1 µM: 0%
[40]
  inhibition at 1 µM: 0%
[41]
  inhibition at 1 µM: 61.9%
[42]
  inhibition at 1 µM: 0%

Reference: PMC9817970 (Cancers, 2022)
